Test results reported in PubChem BioAssay AID1963986 (Molecular Pharmacology Branch, DTP, NCI, 2024).

Test system: 171881-019-R-J1-PDC tumor spheroid viability
Assay: Anticancer human tumor 171881-019-R-J1-PDC patient-derived invasive breast carcinoma cell line growth inhibition [PI3K]
Conditions: spheroids with HUVEC and MSC; for IC50: curve of first compound; for viability, T/C: stronger effect = lower value
Outline: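 Tumor cells were combined with HUVEC and MSCs into spheroids, then dosed with PI3K-inhibitor combinations over half-log ranges capped near clinical Cmax or 10 microM.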

[1] = second compound 0.0316 µM, first compound 0.0316 µM
[2] = second compound 0.0316 µM, first compound 0.1 µM
[3] = second compound 0.1 µM, first compound 0.0316 µM
[4] = second compound 0.1 µM, first compound 0.1 µM
[5] = second compound 0.316 µM, first compound 0.0316 µM
[6] = second compound 0.316 µM, first compound 0.1 µM
[7] = second compound 1 µM, first compound 0.0316 µM
[8] = second compound 1 µM, first compound 0.1 µM
[9] = second compound 3.16 µM, first compound 0.0316 µM
[10] = second compound 3.16 µM, first compound 0.1 µM
[11] = second compound 10 µM, first compound 0.0316 µM
[12] = second compound 10 µM, first compound 0.1 µM
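Further: spheroids exposed to compound for 7 days before viability read.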
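Wherever viability, T/C is given: 100% = DMSO vehicle-treated spheroids.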

C[C@@H](NC(=O)c1ncnc(N)c1Cl)c1ncc(C(=O)Nc2cc(C(F)(F)F)c(Cl)cn2)s1 + Cc1nc(NC(=O)N2CCCC2C(N)=O)sc1-c1ccnc(C(C)(C)C(F)(F)F)c1
IC50 (second compound 0.0316 µM): 6.1 µM
IC50 (second compound 0.1 µM): 3 µM
IC50 (second compound 0.316 µM): 0.555 µM
IC50 (second compound 1 µM): < 0.0316 µM
IC50 (second compound 3.16 µM): < 0.0316 µM
IC50 (second compound 10 µM): < 0.0316 µM
viability, T/C [1]: 92.6%
viability, T/C [2]: 83.5%
viability, T/C (second compound 0.0316 µM, first compound 0.316 µM): 84.8%
viability, T/C (second compound 0.0316 µM, first compound 1 µM): 79.5%
viability, T/C (second compound 0.0316 µM, first compound 3.16 µM): 65%
viability, T/C (second compound 0.0316 µM, first compound 10 µM): 38.7%
viability, T/C [3]: 86.2%
viability, T/C [4]: 82.2%
viability, T/C (second compound 0.1 µM, first compound 0.316 µM): 77.9%
viability, T/C (second compound 0.1 µM, first compound 1 µM): 65.9%
viability, T/C (second compound 0.1 µM, first compound 3.16 µM): 49.2%
viability, T/C (second compound 0.1 µM, first compound 10 µM): 30.7%
viability, T/C [5]: 55.3%
viability, T/C [6]: 56.6%
viability, T/C (second compound 0.316 µM, first compound 0.316 µM): 51.8%
viability, T/C (second compound 0.316 µM, first compound 1 µM): 47.3%
viability, T/C (second compound 0.316 µM, first compound 3.16 µM): 31.9%
viability, T/C (second compound 0.316 µM, first compound 10 µM): 17.5%
viability, T/C [7]: 32.7%
viability, T/C [8]: 33.3%
viability, T/C (second compound 1 µM, first compound 0.316 µM): 31.1%
viability, T/C (second compound 1 µM, first compound 1 µM): 24.5%
viability, T/C (second compound 1 µM, first compound 3.16 µM): 17.3%
viability, T/C (second compound 1 µM, first compound 10 µM): 7.53%
viability, T/C [9]: 16.2%
viability, T/C [10]: 15.2%
viability, T/C (second compound 3.16 µM, first compound 0.316 µM): 12.5%
viability, T/C (second compound 3.16 µM, first compound 1 µM): 10.3%
viability, T/C (second compound 3.16 µM, first compound 3.16 µM): 5.29%
viability, T/C (second compound 3.16 µM, first compound 10 µM): 2.14%
viability, T/C [11]: 4.03%
viability, T/C [12]: 3.76%
viability, T/C (second compound 10 µM, first compound 0.316 µM): 3.28%
viability, T/C (second compound 10 µM, first compound 1 µM): 2.32%
viability, T/C (second compound 10 µM, first compound 3.16 µM): 1.29%
viability, T/C (second compound 10 µM, first compound 10 µM): 0.49%

Cn1ncnc1[C@H]1c2n[nH]c(=O)c3cc(F)cc(c23)N[C@@H]1c1ccc(F)cc1 + Cc1nc(NC(=O)N2CCCC2C(N)=O)sc1-c1ccnc(C(C)(C)C(F)(F)F)c1
IC50 (second compound 0.0316 µM): > 0.1 µM
IC50 (second compound 0.1 µM): > 0.1 µM
IC50 (second compound 0.316 µM): > 0.1 µM
IC50 (second compound 1 µM): < 0.000316 µM
IC50 (second compound 3.16 µM): < 0.000316 µM
IC50 (second compound 10 µM): < 0.000316 µM
viability, T/C (second compound 0.0316 µM, first compound 0.000316 µM): 96.5%
viability, T/C (second compound 0.0316 µM, first compound 0.001 µM): 91%
viability, T/C (second compound 0.0316 µM, first compound 0.00316 µM): 84.8%
viability, T/C (second compound 0.0316 µM, first compound 0.01 µM): 88.8%
viability, T/C [1]: 86.3%
viability, T/C [2]: 79.8%
viability, T/C (second compound 0.1 µM, first compound 0.000316 µM): 86.7%
viability, T/C (second compound 0.1 µM, first compound 0.001 µM): 65.1%
viability, T/C (second compound 0.1 µM, first compound 0.00316 µM): 76.4%
viability, T/C (second compound 0.1 µM, first compound 0.01 µM): 73.1%
viability, T/C [3]: 74.1%
viability, T/C [4]: 66.6%
viability, T/C (second compound 0.316 µM, first compound 0.000316 µM): 50.2%
viability, T/C (second compound 0.316 µM, first compound 0.001 µM): 56.3%
viability, T/C (second compound 0.316 µM, first compound 0.00316 µM): 51.6%
viability, T/C (second compound 0.316 µM, first compound 0.01 µM): 56.4%
viability, T/C [5]: 55%
viability, T/C [6]: 46.6%
viability, T/C (second compound 1 µM, first compound 0.000316 µM): 32.8%
viability, T/C (second compound 1 µM, first compound 0.001 µM): 32.8%
viability, T/C (second compound 1 µM, first compound 0.00316 µM): 29.4%
viability, T/C (second compound 1 µM, first compound 0.01 µM): 31.6%
viability, T/C [7]: 29.6%
viability, T/C [8]: 27.4%
viability, T/C (second compound 3.16 µM, first compound 0.000316 µM): 13.4%
viability, T/C (second compound 3.16 µM, first compound 0.001 µM): 14%
viability, T/C (second compound 3.16 µM, first compound 0.00316 µM): 12.8%
viability, T/C (second compound 3.16 µM, first compound 0.01 µM): 13.4%
viability, T/C [9]: 13.3%
viability, T/C [10]: 12.1%
viability, T/C (second compound 10 µM, first compound 0.000316 µM): 3.72%
viability, T/C (second compound 10 µM, first compound 0.001 µM): 3.81%
viability, T/C (second compound 10 µM, first compound 0.00316 µM): 4.27%
viability, T/C (second compound 10 µM, first compound 0.01 µM): 3.81%
viability, T/C [11]: 3.35%
viability, T/C [12]: 2.96%
